Reference: ChEMBL document CHEMBL4665816, “Syringoleosides A-H, Secoiridoids from Syringa dilatata Flowers and Their Inhibition of NO Production in LPS-Induced RAW 264.7 Cells” (J Nat Prod, 2020)

tested on: RAW264.7; assay: Anti-inflammatory activity in mouse RAW264.7 cells assessed as inhibition of LPS-induced NO production after 24 hrs by Griess reagent-based assay; format: functional, cell-based; conditions: RAW264.7, 24 h

Q: Which IC50 does the source give for `C/C=C1/[C@H](O[C@@H]2O[C@H](CO)[C@@H](O)[C@H](O)[C@H]2O)OC=C(C(=O)OC)[C@H]1CC(=O)OC` here?
A: > 80 µM

Q: For `C/C=C1/[C@H](O[C@@H]2O[C@H](CO)[C@@H](O)[C@H](O)[C@H]2O)OC=C(C(=O)OC)[C@H]1CC(=O)OC[C@H]1O[C@@H](OCCc2ccc(O)c(O)c2)[C@H](O)[C@@H](O)[C@@H]1O`, which IC50 is on record?
A: 48.9 µM

Q: How did the IC50 turn out when `C/C=C1/[C@H](O[C@@H]2O[C@H](CO)[C@@H](O)[C@H](O)[C@H]2O)OC=C(C(=O)OC)[C@H]1CC(=O)OC[C@H]1O[C@@H](OCCc2ccccc2)[C@H](O)[C@@H](O)[C@@H]1O` was run?
A: 65.7 µM

Q: How did the IC50 turn out when `C/C=C1/[C@H](O[C@@H]2O[C@H](CO)[C@@H](O)[C@H](O)[C@H]2O)OC=C(C(=O)OC)[C@H]1CC(=O)OC[C@H]1O[C@@H](OCc2ccccc2)[C@H](O)[C@@H](O)[C@@H]1O` was run?
A: 32.5 µM

Q: With `C/C=C1/[C@H](O[C@@H]2O[C@H](CO)[C@@H](OC(=O)/C=C/c3ccc(O)c(O)c3)[C@H](O)[C@H]2O)OC=C(C(=O)OC)[C@H]1CC(=O)O[C@@H]1[C@@H](O)[C@@H](O)[C@H](O[C@H]2[C@H](O)[C@@H](O)[C@H](OCCc3ccc(O)c(O)c3)O[C@@H]2CO)O[C@H]1C` as the molecule, how does the IC50 read?
A: > 80 µM

Q: `C/C=C1/[C@H](O[C@@H]2O[C@H](CO)[C@@H](O)[C@H](O)[C@H]2O)OC=C(C(=O)OC)[C@H]1CC(=O)O[C@H]1[C@H](OCCc2ccc(O)c(O)c2)O[C@H](CO)[C@@H](O)[C@@H]1O[C@@H]1O[C@@H](C)[C@H](O)[C@@H](O)[C@H]1O` was tested. Which IC50 did it give?
A: 42.1 µM

Q: For `C/C=C1/[C@H](O[C@@H]2O[C@H](CO)[C@@H](O)[C@H](O)[C@H]2O)OC=C(C(=O)OC)[C@H]1CC(=O)OC[C@H]1O[C@@H](OCCc2ccc(O)cc2)[C@H](O)[C@@H](O)[C@@H]1O`, which IC50 is on record?
A: 59.8 µM

Q: Which IC50 does the source give for `C/C=C1/[C@H](O[C@@H]2O[C@H](CO)[C@@H](O)[C@H](O)[C@H]2O)OC=C(C(=O)OC)[C@H]1CC(=O)O[C@H]1[C@H](O[C@@H]2OC=C(C(=O)OC)[C@@H](CC(=O)OC[C@H]3O[C@@H](OCCc4ccc(O)cc4)[C@H](O)[C@@H](O)[C@@H]3O)/C2=C\C)O[C@H](CO)[C@@H](O)[C@@H]1O` here?
A: > 80 µM

Q: Which IC50 does the source give for `C/C=C1/[C@H](O[C@@H]2O[C@H](CO)[C@@H](O)[C@H](O)[C@H]2O)OC=C(C(=O)OC)[C@H]1CC(=O)OC[C@H]1O[C@@H](Oc2ccc(O)cc2)[C@H](O)[C@@H](O)[C@@H]1O` here?
A: 58.3 µM

Q: How did the IC50 turn out when `C/C=C1/[C@H](O[C@@H]2O[C@H](CO)[C@@H](O)[C@H](O)[C@H]2O)OC=C(C(=O)OC)[C@H]1CC(=O)O[C@@H]1[C@@H](O)[C@H](O[C@@H]2OC=C(C(=O)OC)[C@@H](CC(=O)OC[C@H]3O[C@@H](OCCc4ccc(O)cc4)[C@H](O)[C@@H](O)[C@@H]3O)/C2=C\C)O[C@H](CO)[C@H]1O` was run?
A: > 80 µM

Q: Which IC50 does the source give for `C/C=C1/[C@H](O[C@@H]2O[C@H](CO)[C@@H](O)[C@H](O)[C@H]2O)OC=C(C(=O)OC)[C@H]1CC(=O)OC[C@H]1O[C@@H](Oc2ccc(/C=C/CO)cc2OC)[C@H](O)[C@@H](O)[C@@H]1O` here?
A: > 80 µM

Q: With `C/C=C1/[C@H](O[C@@H]2O[C@H](CO)[C@@H](O)[C@H](O)[C@H]2O)OC=C(C(=O)OC)[C@H]1CC(=O)OCCc1ccc(O)c(O)c1` [OLEUROPEIN] as the molecule, how does the IC50 read?
A: > 80 µM
